What was measured:
Experiment in all cases: Broth microdilution antifungal assay
Format in all cases: cell-based
Conditions in all cases: Sabouraud dextrose broth, 30° C., 48 hours
[1] = test system: S. cerevisiae 9763
Description: (§1) For example, studies were performed to evaluate the antifungal activity of the recombinant peptide from pING4702 purified according to Example 6 in a broth microdilution assay using four strains of C. albicans, C. glabrata and S. cerevisiae. A similar peptide, XMP.391, that was chemically synthesized, was included in the assay as a positive control. To perform the broth microdilution assay, the fungal cultures were grown overnight at 30° C. in YPD medium (1% yeast extract, 2% peptone, and 2% dextrose). A 400 fold dilution of each culture in YPD was then made, and grown at 30° C. for 8 hours. Three mL of each culture were collected by centrifugation and suspended in 0.9% NaCl to an A600 of about 0.3. These cultures were further diluted to 1×10^4 CFU/mL in Sabouraud dextrose broth (6 mL). Recombinant peptide was in 5 mM acetate, 150 mM NaCl, pH 5.0 at a concentration of about 2 mg/mL. Synthetic peptide was at about 1 mg/mL. Samples were serially diluted and added to microtiter plates containing the cultures. Plates were incubated at 30° C. for 48 hours before growth inhibition was measured.

[2] = test system: C. albicans SLU1
Description: as §1

[3] = test system: C. albicans 10231
Description: as §1

[4] = test system: C. glabrata 2001
Description: as §1

[5] = test system: C. albicans 14053
Description: as §1

[6] = test system: C. albicans 26555
Description: as §1

XMP.391: Chemically synthesized 12 amino acid BPI-derived peptide (Lys Val Gly Trp Leu Ile Gln Leu Phe His Lys Lys), positive control (KVGWLIQLFHKK; printed: Lys Val Gly Trp Leu Ile Gln Leu Phe His Lys Lys)
Concentration that gives 95% inhibition [1]: 2.0 µM
Concentration that gives 95% inhibition [2]: 13.5 µM
Concentration that gives 95% inhibition [3]: 16 µM
Concentration that gives 95% inhibition [4]: 30 µM
Concentration that gives 95% inhibition [5]: 16 µM
Concentration that gives 95% inhibition [6]: 16 µM

Recombinant Peptide: BPI-derived peptide (SEQ ID NO: 3) acid-released from the Bone D-Asp-Pro-Pro-peptide fusion protein encoded by pING4702, purified according to Example 6 (KVGWLIQLFHKK; Human)
Concentration that gives 95% inhibition [1]: 7.5 µM
Concentration that gives 95% inhibition [2]: 16 µM
Concentration that gives 95% inhibition [3]: 30 µM
Concentration that gives 95% inhibition [4]: 30 µM
Concentration that gives 95% inhibition [5]: 16 µM
Concentration that gives 95% inhibition [6]: 30 µM
